According to BindingDB's records for doi:10.7270/Q2TX3CTT (Broad Institute, 2010):

Target: Glycogen synthase kinase-3 beta (Homo sapiens, UniProt P49841)
Test: GSK3beta kinase inhibitor potency, dose response, biochemical, luminescence, cell-free homogeneous, retest (AID 434954)

Glycogen synthase kinase-3 beta, sequence (P49841 whole entry): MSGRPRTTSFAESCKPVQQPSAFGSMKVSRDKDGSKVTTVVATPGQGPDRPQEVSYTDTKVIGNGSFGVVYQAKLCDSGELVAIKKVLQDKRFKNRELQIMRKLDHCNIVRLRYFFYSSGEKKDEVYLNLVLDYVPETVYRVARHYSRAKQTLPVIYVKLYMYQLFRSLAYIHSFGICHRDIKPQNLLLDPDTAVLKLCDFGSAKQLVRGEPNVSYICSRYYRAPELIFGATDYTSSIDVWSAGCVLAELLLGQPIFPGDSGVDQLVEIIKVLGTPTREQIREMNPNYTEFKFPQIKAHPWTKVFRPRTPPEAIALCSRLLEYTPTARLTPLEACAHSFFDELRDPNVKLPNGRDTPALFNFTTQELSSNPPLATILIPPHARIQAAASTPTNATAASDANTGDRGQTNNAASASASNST

Q: With `COc1ccc(N(CN2C(=O)C3CC=CCC3C2=O)C(=O)c2ccco2)cc1` (centres undefined) [N-[(1,3-dioxo-3a,4,7,7a-tetrahydroisoindol-2-yl)methyl]-N-(4-methoxyphenyl)-2-furancarboxamide] as the compound, how does the EC50 read?
A: > 300 µM

Q: With `Cc1ccc(S(=O)(=O)NN=Cc2cn(-c3ccccc3)nc2-c2ccccc2)cc1` [N-[(1,3-diphenylpyrazol-4-yl)methylideneamino]-4-methylbenzenesulfonamide] as the compound, how does the EC50 read?
A: > 300 µM

Q: How did the EC50 turn out when `Cn1cc([CH+][N-]NC(=O)COc2ccccc2[N+](=O)[O-])c2ccccc21` [N-[(1-methylindol-3-yl)methylideneamino]-2-(2-nitrophenoxy)acetamide] was run?
A: > 300 µM

Q: How did the EC50 turn out when `O=NCc1cn(-c2ccccc2)nc1-c1cccnc1` [N-[(1-phenyl-3-pyridin-3-ylpyrazol-4-yl)methylidene]hydroxylamine] was run?
A: 6.45 µM

Q: Which EC50 does the source give for `CC(=O)N(\C=C/C=C/C=C1\Sc2ccccc2C1=O)c1ccccc1` [N-[(1Z,3E,5Z)-5-(3-oxo-1-benzothien-2(3H)-ylidene)penta-1,3-dienyl]-N-phenylacetamide] here?
A: > 300 µM

Q: `COc1cccc2cc(C(=O)NCc3ccccc3Br)c(=O)oc12` [N-[(2-bromophenyl)methyl]-8-methoxy-2-oxo-1-benzopyran-3-carboxamide] was tested. Which EC50 did it give?
A: > 300 µM

Q: `Fc1ccccc1CNc1nc(-c2cccnc2)nc2ccccc12` [N-[(2-fluorophenyl)methyl]-2-pyridin-3-ylquinazolin-4-amine] was tested. Which EC50 did it give?
A: > 300 µM

Q: `Clc1cccc(CNc2nc(-c3cccnc3)nc3ccccc23)c1` [N-[(3-chlorophenyl)methyl]-2-(3-pyridinyl)-4-quinazolinamine] was tested. Which EC50 did it give?
A: > 300 µM

Q: With `C=CCOc1ccc(CN=Nc2ccccn2)cc1OC` [N-[(3-methoxy-4-prop-2-enoxyphenyl)methylideneamino]pyridin-2-amine] as the compound, how does the EC50 read?
A: > 300 µM

Q: With `Cc1ccsc1CN=Nc1ncnc2nc[nH]c12` [N-[(3-methyl-2-thiophenyl)methylideneamino]-7H-purin-6-amine] as the compound, how does the EC50 read?
A: 9 µM

Q: Which EC50 does the source give for `O=NCc1ccc(Sc2ccccc2)c([N+](=O)[O-])c1` [N-[(3-nitro-4-phenylsulfanylphenyl)methylidene]hydroxylamine] here?
A: 39.3 µM

Q: How did the EC50 turn out when `O=C(N[N-][CH+]c1ccc(N2CCCC2)c([N+](=O)[O-])c1)c1cccnc1` [N-[(3-nitro-4-pyrrolidin-1-ylphenyl)methylideneamino]pyridine-3-carboxamide] was run?
A: > 300 µM

Q: Which EC50 does the source give for `COc1ccc(CN(CC(=O)NCc2ccc(F)cc2)C(=O)CCC(=O)Nc2ccccn2)cc1` [N-[(4-Fluoro-benzylcarbamoyl)-methyl]-N-(4-methoxy-benzyl)-N'-pyridin-2-yl-succinamide] here?
A: > 300 µM

Q: `Cc1ccccc1N(CC(=O)NN=Cc1cc(Br)c(C)o1)S(C)(=O)=O` [N-[(4-bromo-5-methylfuran-2-yl)methylideneamino]-2-(2-methyl-N-methylsulfonylanilino)acetamide] was tested. Which EC50 did it give?
A: > 300 µM

Q: `C=CCn1c(=O)c(C(=O)NCc2ccc(Cl)cc2)c(O)c2ccccc21` [N-[(4-chlorophenyl)methyl]-2-hydroxy-4-oxo-1-prop-2-enyl-3-quinolinecarboxamide] was tested. Which EC50 did it give?
A: > 300 µM

Q: `Fc1ccc(CNc2nc(-c3cccnc3)nc3ccccc23)cc1` [N-[(4-fluorophenyl)methyl]-2-(3-pyridinyl)-4-quinazolinamine] was tested. Which EC50 did it give?
A: > 300 µM

Q: For `COCCn1c(SCC(=O)NCc2ccc(F)cc2)nc2ccccc21` [N-[(4-fluorophenyl)methyl]-2-[1-(2-methoxyethyl)benzimidazol-2-yl]sulfanylacetamide], which EC50 is on record?
A: > 300 µM

Q: Which EC50 does the source give for `O=C(NC(=S)Nc1cccc2c(O)cccc12)c1ccco1` [N-[(5-hydroxynaphthalen-1-yl)carbamothioyl]furan-2-carboxamide] here?
A: 83.9 µM

Q: `COc1ccc(/C=C2/SC(NS(=O)(=O)Cc3ccccc3)=NC2=O)cc1OC` [N-[(5E)-5-[(3,4-dimethoxyphenyl)methylidene]-4-oxo-2-thiazolyl]-1-phenylmethanesulfonamide] was tested. Which EC50 did it give?
A: > 300 µM

Q: How did the EC50 turn out when `COc1ccc(/C=C(/NC(=O)c2ccccc2)C(=O)NN=Cc2ccncc2)c(OC)c1` [N-[(E)-1-(2,4-dimethoxyphenyl)-3-oxo-3-[2-(pyridin-4-ylmethylidene)hydrazinyl]prop-1-en-2-yl]benzamide] was run?
A: > 300 µM

Q: How did the EC50 turn out when `CCn1c(C=CN(C(C)=O)c2ccccc2)[n+](CC)c2cc(Cl)ccc21` [N-[(E)-2-(5-chloro-1,3-diethylbenzimidazol-1-ium-2-yl)ethenyl]-N-phenylacetamide;iodide] was run?
A: > 300 µM

Q: Which EC50 does the source give for `CC[n+]1c(/C=C/N(C)c2ccccc2)sc2ccc(Cl)cc21` [N-[(E)-2-(5-chloro-3-ethyl-1,3-benzothiazol-3-ium-2-yl)ethenyl]-N-methylaniline;perchlorate] here?
A: 49.8 µM

Q: Which EC50 does the source give for `NC(=NNC(=O)c1ccc(Cl)cc1)c1cnccn1` [N-[(Z)-[azanyl(pyrazin-2-yl)methylidene]amino]-4-chloranyl-benzamide] here?
A: > 300 µM

Q: How did the EC50 turn out when `CC(C)(C)NC(=O)NC(=O)CSc1nncs1` [N-[(tert-butylamino)-oxomethyl]-2-(1,3,4-thiadiazol-2-ylthio)acetamide] was run?
A: > 300 µM

Q: How did the EC50 turn out when `O=NCc1cn(-c2ccccc2)nc1-c1ccc2c(c1)OCCO2` [N-[[3-(2,3-dihydro-1,4-benzodioxin-6-yl)-1-phenylpyrazol-4-yl]methylidene]hydroxylamine] was run?
A: 58.7 µM

Q: How did the EC50 turn out when `COc1ccc(-c2nn(-c3ccccc3)cc2CN=O)cc1OC` [N-[[3-(3,4-dimethoxyphenyl)-1-phenylpyrazol-4-yl]methylidene]hydroxylamine] was run?
A: 3.99 µM

Q: With `Cc1ccc(-c2nn(-c3ccccc3)cc2CN=O)cc1` [N-[[3-(4-methylphenyl)-1-phenylpyrazol-4-yl]methylidene]hydroxylamine] as the compound, how does the EC50 read?
A: 0.565 µM

Q: Which EC50 does the source give for `COc1cc(/C=N/NC(=O)c2ccc3ccccc3c2)ccc1Oc1ccc([N+](=O)[O-])cn1` [N-[[3-methoxy-4-(5-nitropyridin-2-yl)oxy-phenyl]methylideneamino]naphthalene-2-carboxamide] here?
A: > 300 µM

Q: `COc1cc([CH+][N-]NC(=O)COc2ccc([N+](=O)[O-])cc2)ccc1OCC(=O)N1CCOCC1` [N-[[3-methoxy-4-[2-(4-morpholinyl)-2-oxoethoxy]phenyl]methylideneamino]-2-(4-nitrophenoxy)acetamide] was tested. Which EC50 did it give?
A: > 300 µM

Q: How did the EC50 turn out when `COc1cc([CH+][N-]NC(=O)c2ccncc2)ccc1Oc1ccc([N+](=O)[O-])cn1` [N-[[3-methoxy-4-[(5-nitro-2-pyridinyl)oxy]phenyl]methylideneamino]-4-pyridinecarboxamide] was run?
A: > 300 µM

Q: For `COc1cc(CN=O)ccc1Oc1ccc([N+](=O)[O-])cc1[N+](=O)[O-]` [N-[[4-(2,4-dinitrophenoxy)-3-methoxyphenyl]methylidene]hydroxylamine], which EC50 is on record?
A: > 300 µM

Q: With `Cc1ccc(C)c(S(=O)(=O)NCc2ccc(C(=O)N3CC(C)OC(C)C3)cc2)c1` (centres undefined) [N-[[4-(2,6-dimethylmorpholin-4-yl)carbonylphenyl]methyl]-2,5-dimethyl-benzenesulfonamide] as the compound, how does the EC50 read?
A: > 300 µM

Q: How did the EC50 turn out when `O=NCc1ccc(Oc2ccccc2Cl)c([N+](=O)[O-])c1` [N-[[4-(2-chlorophenoxy)-3-nitrophenyl]methylidene]hydroxylamine] was run?
A: 12.8 µM

Q: Which EC50 does the source give for `O=NCc1ccc(Oc2ccc(F)cc2)c([N+](=O)[O-])c1` [N-[[4-(4-fluorophenoxy)-3-nitrophenyl]methylidene]hydroxylamine] here?
A: 23 µM

Q: For `CCSc1nnc(NC(=O)CSc2nnc(CNC(=O)c3cc(OC)c(OC)c(OC)c3)o2)s1` [N-[[5-[2-[(5-ethylsulfanyl-1,3,4-thiadiazol-2-yl)amino]-2-oxoethyl]sulfanyl-1,3,4-oxadiazol-2-yl]methyl]-3,4,5-trimethoxybenzamide], which EC50 is on record?
A: > 300 µM

Q: For `O=C(COc1ccccc1[N+](=O)[O-])NN=C/C=C/c1ccco1` [N-[[(E)-3-(furan-2-yl)prop-2-enylidene]amino]-2-(2-nitrophenoxy)acetamide], which EC50 is on record?
A: > 300 µM

Q: For `CC(C=Cc1ccccc1F)=NNC(=O)C(C)C` [N-[[(E)-4-(2-fluorophenyl)but-3-en-2-ylidene]amino]-2-methylpropanamide], which EC50 is on record?
A: > 300 µM

Q: For `COc1cc(C(=O)NC(=S)N(CCc2ccccc2)CCc2ccccc2)cc(OC)c1OC` [N-[bis(2-phenylethyl)carbamothioyl]-3,4,5-trimethoxybenzamide], which EC50 is on record?
A: > 300 µM

Q: Which EC50 does the source give for `Clc1nccc(NCc2ccccc2)n1` [N-benzyl-N-(2-chloropyrimidin-4-yl)amine] here?
A: > 300 µM

Q: `CN(Cc1ccccc1)S(=O)(=O)c1ccc2c(c1)NC(=O)CC(=O)N2` [N-benzyl-N-methyl-2,4-dioxo-1,5-dihydro-1,5-benzodiazepine-7-sulfonamide] was tested. Which EC50 did it give?
A: > 300 µM

Q: `CCC(C)NC(=O)CNC(=S)N(CCCN1CCOCC1)Cc1cccs1` (centres undefined) [N-butan-2-yl-2-[[3-morpholin-4-ylpropyl(thiophen-2-ylmethyl)carbamothioyl]amino]ethanamide] was tested. Which EC50 did it give?
A: > 300 µM

Q: Which EC50 does the source give for `O=C(NC1CCCCCC1)C1CCCN(S(=O)(=O)c2cccs2)C1` (centres undefined) [N-cycloheptyl-1-thiophen-2-ylsulfonylpiperidine-3-carboxamide] here?
A: > 300 µM

Q: For `CC(C(=O)NC1CCCCCC1)n1cc([N+](=O)[O-])cn1` (centres undefined) [N-cycloheptyl-2-(4-nitro-1-pyrazolyl)propanamide], which EC50 is on record?
A: > 300 µM

Q: How did the EC50 turn out when `O=C(NC1CCCCC1)C(c1ccc(F)cc1)N(Cc1ccccc1)C(=O)CN1C(=O)c2ccccc2S1(=O)=O` (centres undefined) [N-cyclohexyl-2-(4-fluorophenyl)-2-[[1-oxo-2-(1,1,3-trioxo-1,2-benzothiazol-2-yl)ethyl]-(phenylmethyl)amino]acetamide] was run?
A: > 300 µM

Q: `COc1cccc2c1cc1c(=O)n(CC(=O)NC3CCCCC3)nc(C)n12` [N-cyclohexyl-2-(9-methoxy-4-methyl-1-oxidanylidene-[1,2,4]triazino[4,5-a]indol-2-yl)ethanamide] was tested. Which EC50 did it give?
A: > 300 µM

Q: How did the EC50 turn out when `Nc1ncnc(N(c2ccccc2)C2CCCCC2)c1[N+](=O)[O-]` [N-cyclohexyl-5-nitro-N-phenyl-4,6-pyrimidinediamine] was run?
A: > 300 µM

Q: For `Cc1ccc(N(c2ncnc(N)c2[N+](=O)[O-])C2CCCCC2)cc1` [N-cyclohexyl-N-(4-methylphenyl)-5-nitro-4,6-pyrimidinediamine], which EC50 is on record?
A: > 300 µM

Q: How did the EC50 turn out when `CCN(Cc1ccccc1)S(=O)(=O)c1ccc2c(c1)NC(=O)CC(=O)N2` [N-ethyl-2,4-dioxo-N-(phenylmethyl)-1,5-dihydro-1,5-benzodiazepine-7-sulfonamide] was run?
A: 59.6 µM

Q: Which EC50 does the source give for `C[O+]=N[CH-]c1ccc(N2CCOCC2)c([N+](=O)[O-])c1` [N-methoxy-1-(4-morpholin-4-yl-3-nitro-phenyl)methanimine] here?
A: > 300 µM
